Experimental data: PMC10568461, “A pilot study of cerebral metabolism and serotonin 5-HT2A receptor occupancy in rats treated with the psychedelic tryptamine DMT in conjunction with the MAO inhibitor harmine” (Frontiers in Pharmacology, 2023)
Several values for one entry are separate records, joined by “and”; a condition that tells them apart may be missing. Identical values can stand only once.

What was measured:
[1] = test system: brain glucose metabolism; assay: [^18F]FDG-PET of cerebral glucose metabolism (experiment 1); format: in vivo, rat; conditions: for [^18F]FDG-PET SUV normalized to whole-brain uptake (SUVglob): 1 mg/kg s.c.; for [^18F]FDG-PET SUV normalized to whole-brain uptake (SUVglob) / [^18F]FDG-PET glucose normalized SUV (SUVgluc): mean (SD)
Procedure: The dynamic PET recordings were histogrammed into six frames of 5 minutes each, and reconstructed with attenuation, decay, and scatter correction using the OSEM3D/SP-MAP algorithm (2 x OSEM iterations and 18 x MAP iterations) with a matrix size of 128 × 128 pixels, resulting in a final target resolution of 0.8 mm/pixel. Pre-processing of PET scans was performed using PMOD v4.2 (PMOD Technologies LLC, Zurich, Switzerland). The [^18F]FDG images were averaged across the six frames and then converted into standardized uptake values (SUV), whereupon the image was cropped to the head of the animal and automatically co-registered to a standard [^18F]FDG-PET template. We used Schiffer’s atlas ([Schiffer et al., 2006]) for parcellation of bilateral brain regions within the cortico-striato-thalamo-cortical (CSTC) circuit, i.e. bilateral nucleus accumbens (NAc), medial prefrontal cortex (mPFC), orbitofrontal cortex (OFC), hippocampus, striatum, thalamus, visual cortex, cerebellum as a comparator region, and whole brain. We selected these regions from the CSTC circuit based on a conceptual model holding that the thalamus acts as a filter/gatekeeper of sensory information, broadcasting to cortical regions that subserve conscious experience ([Wang et al., 2006]; [McAlonan et al., 2008]). Perturbation of this CSTC circuit is implicated in the action of psychedelic compounds ([Geyer and Vollenweider, 2008]; [Preller et al., 2019]). We scaled individual regional SUV results to the mean blood glucose levels measured during the recording session (SUVgluc) and to the global [^18F]FDG uptake (SUVglob).

[2] = target: T1, MAO-A (Rattus norvegicus, UniProt P21396); assay: MAO-A inhibition in living brain inferred from cerebral 3-IAA; format: in vivo; conditions: Experiment 1, harmine 1 mg/kg with DMT; suggested by lower cerebral 3-IAA
T1 sequence (P21396 1-526): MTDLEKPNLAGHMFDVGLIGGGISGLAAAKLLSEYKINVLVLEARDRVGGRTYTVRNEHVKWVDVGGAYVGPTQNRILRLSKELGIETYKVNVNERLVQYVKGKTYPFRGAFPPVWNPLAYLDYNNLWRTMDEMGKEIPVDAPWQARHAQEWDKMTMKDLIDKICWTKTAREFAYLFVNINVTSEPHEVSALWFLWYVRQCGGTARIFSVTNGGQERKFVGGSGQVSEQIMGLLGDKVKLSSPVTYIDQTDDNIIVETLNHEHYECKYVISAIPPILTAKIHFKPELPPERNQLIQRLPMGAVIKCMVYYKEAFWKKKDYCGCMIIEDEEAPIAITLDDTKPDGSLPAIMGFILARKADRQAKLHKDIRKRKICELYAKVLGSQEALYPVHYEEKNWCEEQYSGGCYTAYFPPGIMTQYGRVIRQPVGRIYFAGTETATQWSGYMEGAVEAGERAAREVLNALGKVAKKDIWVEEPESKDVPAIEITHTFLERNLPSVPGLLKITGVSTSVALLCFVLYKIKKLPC

[3] = test system: rats; assay: Behavioural observations in treated rats; format: in vivo, rat; conditions: not systematically assessed
[4] = target: T1, MAO-A; assay: Apparent affinity at MAO binding sites in living brain; format: in vivo; conditions: extrapolated from the 150-fold in vitro/in vivo difference of [^18F]fluoroethyl-harmol; read-out: Predicted apparent affinity for MAO-A in living brain
[5] = design: method as in ref Guan et al., 2001; Li et al., 2017; Wang et al., 2019; Brito-da-Costa et al., 2020; conditions: rats, 0.5 to 3.3 mg/kg i.v. and 20–40 mg/kg p.o.; ref Guan et al., 2001; Li et al., 2017; Wang et al., 2019; Brito-da-Costa et al., 2020; cited from earlier work
[6] = Brain concentrations of harmine, DMT and metabolites by UHPLC-MS after s.c. harmine and/or DMT; conditions: rat, subcutaneous
Procedure: Groups of (n = 6) rats received either saline, harmine (1 mg/kg), DMT (1 mg/kg), or harmine + DMT (1 mg/kg each) as subcutaneous injections, as indicated in Figure 1.
After 45 min, rats were sacrificed by decapitation, and the brains dissected into cerebellum and frontal cortex samples for radioactivity measurement and chemical analysis, thus 65 min after harmine + DMT.

In the case of `COc1ccc2c(c1)[nH]c1c(C)nccc12` [harmine], the “Qualitative effect on brain [^18F]FDG uptake (SUVglob maps)” value ([1]; 1 mg/kg, separately or in combination) is reported as “no conspicuous effects”, the “Thalamus SUVglob versus vehicle group (Dunn's post hoc test)” value ([1]; 1 mg/kg, Z = −2.66, p = 0.047) is reported as “significantly different from the vehicle group” and the “[^18F]FDG-PET SUV normalized to whole-brain uptake (SUVglob)” value (shortened to “[^18F]FDG-PET SUV normalized”) ([1]; NAc) is reported as 6.23 (0.18) SUV. For the same compound, the “[^18F]FDG-PET glucose normalized SUV (SUVgluc)” value ([1]; NAc, 1 mg/kg) was 6.4 (1.05) SUV, the “[^18F]FDG-PET SUV normalized” value ([1]; OFC) was 6.5 (0.44) SUV and the “[^18F]FDG-PET glucose normalized SUV (SUVgluc)” value ([1]; OFC, 1 mg/kg) was 6.71 (1.33) SUV. The “[^18F]FDG-PET SUV normalized” value ([1]; cerebellum) was 4.52 (0.15) SUV, the “[^18F]FDG-PET glucose normalized SUV (SUVgluc)” value ([1]; cerebellum, 1 mg/kg) was 4.62 (0.67) SUV and the “[^18F]FDG-PET SUV normalized” value ([1]; hippocampus) was 5.32 (0.23) SUV. For the same compound, the “[^18F]FDG-PET glucose normalized SUV (SUVgluc)” value ([1]; hippocampus, 1 mg/kg) was 5.44 (0.77) SUV, the “[^18F]FDG-PET SUV normalized” value ([1]; mPFC) was 7.09 (0.32) SUV and the “[^18F]FDG-PET glucose normalized SUV (SUVgluc)” value ([1]; mPFC, 1 mg/kg) was 7.28 (1.18) SUV. For the same compound, the “[^18F]FDG-PET SUV normalized” value ([1]; striatum) was 6.99 (0.12) SUV, the “[^18F]FDG-PET glucose normalized SUV (SUVgluc)” value ([1]; striatum, 1 mg/kg) was 7.19 (1.21) SUV and the “[^18F]FDG-PET SUV normalized” value ([1]; thalamus) was 6.54 (0.13) SUV. The “[^18F]FDG-PET glucose normalized SUV (SUVgluc)” value ([1]; thalamus, 1 mg/kg) was 6.73 (1.15) SUV, the “[^18F]FDG-PET SUV normalized” value ([1]; visual cortex) was 6.1 (0.24) SUV and the “[^18F]FDG-PET glucose normalized SUV (SUVgluc)” value ([1]; visual cortex, 1 mg/kg) was 6.29 (1.15) SUV. The “[^18F]FDG-PET glucose normalized SUV (SUVgluc)” value ([1]; whole brain, 1 mg/kg) was 5.69 (0.93) SUV, the “Inhibition of MAO-A in living brain” value [2] was 50% and the “Behaviour and anesthesia requirement of treated rats” value [3] was “calmer and needed less isoflurane to sustain anesthesia”. For the same compound, the Kd [4] was about 300 nM, the Plasma half-life [5] was 3.5 h and the concentration at 100 min ([6]; brain, 1 mg/kg, Brain harmine concentration, at 100 min after treatment with 1 mg/kg) was about 1000 nM. The concentration at 95 min ([6]; brain, 1 mg/kg, Mean concentration in brain tissue, Experiment 1, after harmine alone (1 mg/kg)) was 116 ng/g and 550 nM, the concentration at 70 min ([6]; brain, 3 mg/kg, Brain harmine concentration, at 70 min after the higher dose (3 mg/kg)) was about 2000 nM and the concentration at 65 min ([6]; brain, Mean brain concentration, Experiment 2, harmine + DMT (3 mg/kg each)) was 424 ng/g and 2 µM. For the same compound, the concentration at 95 min ([6]; brain, Mean concentration in brain tissue, Experiment 1, after harmine + DMT (1 mg/kg each)) was 257 ng/g and 1.21 µM, the concentration at 95 min ([6]; cerebellum, 1 mg/kg, Brain concentration, Experiment 1, cerebellum, group DMT (1 mg/kg s.c.), 95 min, mean (SD)) was 13.6 ng/g and the concentration at 95 min ([6]; cerebellum, Brain concentration, Experiment 1, cerebellum, group Har (harmine 1 mg/kg s.c.), 95 min after drug, mean (SD)) was 104 ng/g. The concentration at 95 min ([6]; cerebellum, Brain concentration, Experiment 1, cerebellum, group Har + DMT (1 mg/kg each s.c.), 95 min, mean (SD)) was 189 ng/g, the concentration at 65 min ([6]; cerebellum, Brain concentration, Experiment 2, cerebellum, group Har + DMT (3 mg/kg each s.c.), 65 min, mean (SD)) was 412 ng/g and the concentration at 95 min ([6]; frontal cortex, 1 mg/kg, Brain concentration, Experiment 1, frontal cortex, group DMT (1 mg/kg s.c.), 95 min, mean (SD)) was 20.1 ng/g. The concentration at 95 min ([6]; frontal cortex, Brain concentration, Experiment 1, frontal cortex, group Har (harmine 1 mg/kg s.c.), 95 min, mean (SD)) was 128 ng/g, the concentration at 95 min ([6]; frontal cortex, Brain concentration, Experiment 1, frontal cortex, group Har + DMT (1 mg/kg each s.c.), 95 min, mean (SD)) was 326 ng/g and the concentration at 65 min ([6]; frontal cortex, Brain concentration, Experiment 2, frontal cortex, group Har + DMT (3 mg/kg each s.c.), 65 min, mean (SD)) was 436 ng/g.
